Laboratory results from patent publication US9889113B2, “Method for reversing, preventing, delaying or stabilizing soft tissue calcification” (Panion & BF Biotech, Inc., priority 2006, dated 2018).

How the values were obtained:
[1] = system: patients with end stage renal disease (ESRD) on hemodialysis; assay: Randomized, double-blind, placebo-controlled, dose-ranging study of ferric citrate on serum phosphate, Ca and Ca×PO4; assay type: in vivo, human; settings: for Serum [Ca] (mg/dL) at Day 0 / Serum [PO4] (mg/dL) at Day 0 / [Ca] * [PO4] (mg/dL)^2 at Day 0: Day 0 baseline; for Serum Ca (mg/dL): Linear Regression: N.S.: Not Significant
Description: Objectives: (1) To determine the effect of ferric citrate at doses of 2, 4 and 6 g daily, administered TID (three times a day), for 28 days on serum phosphate (PO4) levels in patients with end stage renal disease (ESRD). (2) To evaluate the safety of ferric citrate at doses of 2, 4, 6 g daily, administered TID, for 28 days in patients with ESRD.
Study Design: Randomized, double-blind, placebo-controlled, dose-ranging study to assess the effect of ferric citrate on serum phosphate concentrations in patients with ESRD on hemodialysis. Patients are assessed at Study Days 14 and 28 for effectiveness as measured by serum phosphate concentrations. Patients who received one or more doses of study medication are also assessed for safety.
Study Duration: 8 weeks (including the screening period, 2 weeks washout, 4 weeks treatment)
Ferric citrate is administered orally, and is given equally three times a day.

[2] = system: patients with end stage renal disease (ESRD) on hemodialysis; assay: as above; assay type: in vivo, human; settings: Day 28; 2, 4, 6 g/day TID vs placebo
[3] = 0, 2, 4 and 6 gm/day, TID immediately after meals
[4] = 6 g/day (N = 32), Day 28, *P < 0.05 baseline change vs placebo
[5] = Day 14, 2, 4, 6 g/day TID vs placebo
[6] = Day 28, 2, 4, 6 g/day TID vs placebo

## O=C([O-])CC(O)(CC(=O)[O-])C(=O)[O-].[Fe+3] [ferric citrate]
[1]; [3]
  Ca*PO4: decrease
  serum PO4: decrease
[1]; 2 g/day (N = 31)
  Serum [Ca] (mg/dL) at Day 0: 8.78 mg/dL
  Serum [PO4] (mg/dL) at Day 0: 7.2 mg/dL
  [Ca] * [PO4] (mg/dL)^2 at Day 0: 62.9 (mg/dL)^2
[1]; 2 g/day (N = 31), Day 14
  Serum [Ca] (mg/dL) at Day 14: 9.01 mg/dL
  Serum [PO4] (mg/dL) at Day 14: 6.7 mg/dL
  [Ca] * [PO4] (mg/dL)^2 at Day 14: 60.3 (mg/dL)^2
[1]; 2 g/day (N = 31), Day 28
  Serum [Ca] (mg/dL) at Day 28: 9.00 mg/dL
  Serum [PO4] (mg/dL) at Day 28: 6.9 mg/dL
  [Ca] * [PO4] (mg/dL)^2 at Day 28: 61.7 (mg/dL)^2
[1]; 4 g/day (N = 32)
  Serum [Ca] (mg/dL) at Day 0: 9.02 mg/dL
  Serum [PO4] (mg/dL) at Day 0: 7.1 mg/dL
  [Ca] * [PO4] (mg/dL)^2 at Day 0: 63.5 (mg/dL)^2
[1]; 4 g/day (N = 32), Day 14
  Serum [Ca] (mg/dL) at Day 14: 9.47 mg/dL
  Serum [PO4] (mg/dL) at Day 14: 6.4 mg/dL
  [Ca] * [PO4] (mg/dL)^2 at Day 14: 59.9 (mg/dL)^2
[1]; 4 g/day (N = 32), Day 28
  Serum [Ca] (mg/dL) at Day 28: 9.29 mg/dL
  Serum [PO4] (mg/dL) at Day 28: 6.0 mg/dL
  [Ca] * [PO4] (mg/dL)^2 at Day 28: 55.4 (mg/dL)^2
[1]; 6 g/day (N = 32)
  Serum [Ca] (mg/dL) at Day 0: 8.99 mg/dL
  Serum [PO4] (mg/dL) at Day 0: 7.3 mg/dL
  [Ca] * [PO4] (mg/dL)^2 at Day 0: 65.8 (mg/dL)^2
[1]; 6 g/day (N = 32), Day 14
  Serum [Ca] (mg/dL) at Day 14: 9.13 mg/dL
  Serum [PO4] (mg/dL) at Day 14: 6.3 mg/dL
  [Ca] * [PO4] (mg/dL)^2 at Day 14: 57.5 (mg/dL)^2
[1]; 6 g/day (N = 32), Day 28
  Serum [Ca] (mg/dL) at Day 28: 9.26 mg/dL
[1]; [4]
  Serum [PO4] (mg/dL) at Day 28: 5.8 mg/dL
  [Ca] * [PO4] (mg/dL)^2 at Day 28: 54.1 (mg/dL)^2
[1]; 6 gm/day dose at both 14 and 28 days
  Ca*P04 levels: have decreased and were statistically significant
[1]; Day 0
  Serum Ca (mg/dL): Dose Response: No
[1]; [5]
  Ca × PO4 (mg/dL)^2: Dose Response: Yes
  Ca × PO4 (mg/dL)^2: Linear Regression P: P = 0.0401
  Ca × PO4 (mg/dL)^2: Statistical Significant: No
  Serum Ca (mg/dL): Dose Response: No
  Serum Ca (mg/dL): Statistical Significant: No
  Serum PO4 (mg/dL): Dose Response: No
  Serum PO4 (mg/dL): Statistical Significant: No
[1]; Day 14
  Serum Ca (mg/dL): Linear Regression: N.S.
[1]; [6]
  Ca × PO4 (mg/dL)^2: Dose Response: Yes
  Serum Ca (mg/dL): Dose Response: No
  Serum Ca (mg/dL): Statistical Significant: No
  Serum PO4 (mg/dL): Dose Response: Yes
  Serum PO4 (mg/dL): Linear Regression P: P = 0.0073
  Serum PO4 (mg/dL): Statistical Significant: Yes (6 g/day)
[1]; Day 28, 2, 4, 6 g/day vs placebo
  [Ca] * [PO4] (mg/dL)^2: Dose Response: Yes
[1]; Day 28
  Serum Ca (mg/dL): Linear Regression: N.S.
[1]; Day 78, 2, 4, 6 g/day TID vs placebo
  Ca × PO4 (mg/dL)^2: Statistical Significant: Yes (6 g/day)
[1]; Phase II study
  serum Ca×P: decrease serum Ca×P in a dose-dependent manner
[1]; during the 28 days, 2, 4, and 6 gm/day
  change in serum calcium level: No significant change
[1]; patients with ESRD
  ability to lower serum phosphate levels: demonstrated
[2]
  Ca × PO4 (mg/dL)^2: Linear Regression P: P = 0.0158
